Series [1] deals with human beta-coronavirus OC43. In words: OC43 coronavirus antiviral assay in HeLa cells. The series is classed as cell-based. Conditions: Betacoronavirus 1, 144 h, OC43, 6 days at 33° C., cell-titer-glo. As for the experimental part:
(§1) The human beta-coronavirus OC43 was purchased from ATCC (Manassas, VA) and propagated using HCT-8 human colorectal epithelial cells (ATCC). HeLa human cervical epithelial cells (ATCC) were used as susceptible host cell lines and were cultured using EMEM media, supplemented with 10% fetal bovine serum (FBS), 1% (v/v) penicillin/streptomycin (P/S), 1% (v/v) HEPES and 1% (v/v) cellgro Glutagro™ supplement (all Corning, Manassas, VA) at 37° C. For the OC43 antiviral assay, 1.5×10^4 HeLa cells per well were plated in 100 μL complete media in white 96-well plates with clear bottoms at 37° C. for up to 24 h to facilitate attachment and allow cells to recover from seeding stresses. Next day, the cell culture medium was removed. Serially diluted compounds in 100 μL assay media (EMEM, 2% FBS, 1% P/S, 1% cellgro Glutagro™ supplement, 1% HEPES) were added to the cells and incubated for 4 h at 37° C. in a humidified 5% CO2 incubator. 100 μL of OC43 virus stock was diluted to a concentration known to produce optimal cytopathic effect, inducing 80-90% reduction in cell viability. 96-well plates were incubated for 6 days at 33° C.; each plate contains uninfected control wells as well as virus-infected wells that were not treated with compound. Cytotoxicity plates without the addition of OC43 virus were carried out in parallel. At the end of the incubation period, 100 μL cell culture supernatant was replaced with 100 μL cell-titer-glo reagent (Promega, Madison, WI) and incubated for at least 10 min at rt prior to measuring luminescence. Luminescence was measured on a Perkin Elmer (Waltham, MA) Envision plate reader. Antiviral % inhibition was calculated as follows: [(Compound treated cells infected sample)−(no compound infected control)]/[(Uninfected control)−(no compound infected control)]*100; Using GraphPad (San Diego, CA) prism software version 8.3.1, the antiviral dose-response plot was generated as a sigmoidal fit, log(inhibitor) vs response-variable slope (four parameters) model and the EC50 was calculated which is the predicted compound concentration corresponding to a 50% inhibition of the viral cytopathic effect.
(§2) Table 2 indicates related EC50 and CC50 values for the tested compounds ‘A’ indicates an EC50<100 nM, ‘B’ indicates an EC50 of ≥100 nM and <1000 nM, ‘C’ indicates an EC50≥1000 nM and <10000 nM and ‘D’ indicates an EC50≥10000 nM and <100000 nM. For CC50, the values are reported in micromolar (M), ‘A’ indicates a CC50≥10000 nM and ‘B’ indicates a CC50≥1 μM and <10 μM.

A short description of series [2]: Cytotoxicity in HeLa cells without OC43 virus. Conditions: human, HeLa cells (uninfected), in parallel. In kind it is cell-based. As for the experimental part: as §1, §2
A short description of series [3]: in vitro. Conditions: human.
The target in series [4] is T1, SARS-Cov-2 3CLpro (Severe acute respiratory syndrome coronavirus 2, UniProt P0DTD1).
T1 construct: 3CLpro was added using a Multidrop Combi
Put plainly: SARS-Cov-2 3CLpro protease assay (SAMDI-MS). The series is classed as biochemical.

Series [5] has as its target T2, human cathepsin L (Homo sapiens, UniProt P07711).
T2 construct: purchased R&D Systems
Put plainly: Cathepsin L assay. Conditions: 10 pM human cathepsin L, Z-FR-AMC 2 μM. The series is classed as biochemical. As for the experimental part: For the cathepsin L assay, 10 pM of human cathepsin L (R&D Systems; Minneapolis, MN) was preincubated for 30 mins with test compounds. Reactions were initiated by the addition of a peptide substrate Z-FR-AMC (final concentration 2 μM, Anaspec; Fremont, CA). Fluorescence was measured at 2-minute intervals for 30 mins using a 355/460 excitation/emission filter module on an Envision plate reader (Perkin Elmer; Waltham, MA). The IC50 values were calculated for each assay by fitting the curves using a four-parameter equation in GraphPad Prism.
Table 4 indicates related IC50 values for the tested compounds where ‘A’ indicates an IC50≥10000 nM, ‘B’ indicates an IC50 of ≥1000 nM and <10000 nM, ‘C’ indicates an IC50; ≥100 nM and <1000 nM, ‘D’ indicates an IC50<100 nM.

Series [6] concerns SARS-CoV-2 B.1.1.7 lineage. Put plainly: microbe, parasite or virus in culture. The series is classed as cell-based. Particulars: Severe acute respiratory syndrome coronavirus 2, 96 h; read-out: A549-dual_ACE2_TMPRSS2 (EC50).
[7] abbreviates: 30 mins preincubation, duplex peptide substrates, read-out: SARS-Cov-2 (3CLpro IC50).

Where two headings read alike, the source gives them in different places.

T2 sequence (P07711 114-333): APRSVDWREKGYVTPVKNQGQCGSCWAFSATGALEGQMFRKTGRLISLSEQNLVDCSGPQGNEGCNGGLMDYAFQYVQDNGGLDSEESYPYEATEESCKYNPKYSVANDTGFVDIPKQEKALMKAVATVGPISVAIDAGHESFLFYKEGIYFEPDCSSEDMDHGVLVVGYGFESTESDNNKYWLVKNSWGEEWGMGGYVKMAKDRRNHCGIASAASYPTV

As a reminder, the EC50 is the concentration needed to bring the measured effect to its halfway point. Regarding `CC(C)(C)[C@H](NC(=O)C(F)(F)F)C(=O)N1C[C@H]2[C@@H]([C@H]1C(=O)NC(C#N)c1cnc3ccccn13)[C@H]1C=C[C@@H]2C1` (stereo partly drawn) [Compound 2, (1S,3aR,4S,7R,7aS)—N-(cyano(imidazo[1,2-a]pyridin-3-yl)methyl)-2-((S)-3,3-dimethyl-2-(2,2,2-trifluoroacetamido)butanoyl)-2,3,3a,4,7,7a-hexahydro-1H-4,7-methanoisoindole-1-carboxamide], the EC50 in series [1] and in series [6] was 100 to 1000 nM throughout. Moreover, the CC50 at 6 days in series [2] is not below 10000 nM. The compound also came in with a CC50 in series [3] of more than 1000 nM. Further, the IC50 in series [4] (setting [7]) is less than 20 nM; in series [5] it was not below 10000 nM.
On to `CC(C)(C)[C@H](NC(=O)C(F)(F)F)C(=O)N1C[C@H]2[C@@H]([C@H]1C(=O)NC1(C#N)CCc3ccncc31)[C@H]1C=C[C@@H]2C1` (stereo partly drawn) [Compound 5, (1R,2S,3S,6R,7S)—N-{7-cyano-5H,6H-cyclopenta[c]pyridin-7-yl}-4-[(2S)-3,3-dimethyl-2-(2,2,2-trifluoroacetamido)butanoyl]-4-azatricyclo[5.2.1.0^{2,6}]dec-8-ene-3-carboxamide], for which the results for the EC50 in series [1] and in series [6] were 1000 to 10000 nM and not below 1000 nM, respectively. The same compound returned a CC50 at 6 days in series [2] not below 10000 nM. In series [3], the CC50 is more than 1000 nM. Moreover, the IC50 in series [4] (setting [7]) is 200 to 2000 nM.
For `CC(C)(C)[C@H](NC(=O)C(F)(F)F)C(=O)N1C[C@@H]2[C@H]3C[C@@H]([C@@H]2[C@H]1C(=O)NC(C#N)c1cncc2c1OCCO2)[C@H](F)C3` (stereo partly drawn) [Compound 27], in that order: 1000 to 10000 nM, not below 1000 nM, not below 10000 nM, more than 1000 nM and 20 to 200 nM.
Take `CC(C)(C)[C@H](NC(=O)C(F)(F)F)C(=O)N1C[C@H]2[C@@H]([C@H]1C(=O)NC(C#N)c1cnc3ccccc3c1)[C@H]1C=C[C@@H]2C1` (stereo partly drawn) [Compound 15]: the EC50 in series [1] and in series [6] was 100 to 1000 nM throughout. In series [2], this compound yielded a CC50 at 6 days not below 10000 nM. Besides, the CC50 in series [3] was more than 1000 nM. Moreover, in series [4] (setting [7]), the IC50 is less than 20 nM.
As for `COc1cccc2cncc([C@@H](C#N)NC(=O)[C@@H]3[C@@H]4[C@H](CN3C(=O)[C@@H](NC(=O)C(F)(F)F)C(C)(C)C)[C@H]3C[C@@H]4[C@H](F)C3)c12` [Compound 28], the EC50 in series [1] and in series [6] was less than 100 nM each time. In series [2], the CC50 at 6 days was not below 10000 nM. The same compound showed a CC50 in series [3] of more than 1000 nM. Further, the IC50 in series [4] (setting [7]) is less than 20 nM.
For `CC(C)(C)[C@H](NC(=O)C(F)(F)F)C(=O)N1C[C@@H]2[C@H]3C[C@@H]([C@@H]2[C@H]1C(=O)NC(C#N)c1cncc2cnccc12)[C@H](F)C3` (stereo partly drawn) [Compound 22], the EC50 in series [1] lay in the range of 1000 to 10000 nM; in series [6], 100 to 1000 nM. In addition, the CC50 at 6 days in series [2] was not below 10000 nM. The compound also had a CC50 in series [3] of more than 1000 nM. Also, in series [4] (setting [7]), the IC50 is less than 20 nM.
For `N#CC(NC(=O)[C@@H]1[C@@H]2[C@H](CN1C(=O)[C@H](CC1CC1)NC(=O)C(F)(F)F)[C@H]1C[C@@H]2[C@H](F)C1)c1cnn2ccccc12` (stereo partly drawn) [Compound 24], in that order: 100 to 1000 nM, 100 to 1000 nM, not below 10000 nM, more than 1000 nM and less than 20 nM.
For `CC(C)(C)[C@H](NC(=O)C(F)(F)F)C(=O)N1C[C@@H]2[C@H]3C[C@@H]([C@@H]2[C@H]1C(=O)NC1(C#N)CCCc2ccncc21)[C@H](F)C3` (stereo partly drawn) [Compound 31], the EC50 is 1000 to 10000 nM in series [1] and not below 1000 nM in series [6]. For the same compound, the CC50 at 6 days in series [2] was not below 10000 nM. The same compound came in with a CC50 in series [3] of more than 1000 nM. For the same compound, the IC50 in series [4] (setting [7]) was 2000 to 20000 nM; in series [4] (bound given in table footnote, read-out: SARS-Cov-2 activity (footnote of Table 1)), more than 2000 nM.
As for `CC(C)(C)[C@H](NC(=O)C(F)(F)F)C(=O)N1C[C@@H]2[C@H]3C[C@@H]([C@@H]2[C@H]1C(=O)NC(C#N)c1cnn2cc(F)ccc12)[C@H](F)C3` (stereo partly drawn) [Compound 20], the EC50 in series [1] was 100 to 1000 nM; in series [6] it was less than 100 nM. In series [2], this compound came in with a CC50 at 6 days not below 10000 nM. Moreover, the CC50 in series [3] was more than 1000 nM. Further, the IC50 in series [4] (setting [7]) was less than 20 nM.
For `CC(C)(C)[C@H](NC(=O)C(F)(F)F)C(=O)N1CCC2(CC2)C[C@H]1C(=O)NC(C#N)c1cnn2ccccc12` (stereo partly drawn) [Compound 18], in that order: 100 to 1000 nM, 100 to 1000 nM, not below 10000 nM, more than 1000 nM and less than 20 nM.
For `CC(C)(C)[C@H](NC(=O)C(F)(F)F)C(=O)N1C[C@H]2[C@@H]([C@H]1C(=O)NC(C#N)c1cncc3ccccc13)[C@H]1C=C[C@@H]2C1` (stereo partly drawn) [Compound 1, (1S,3aR,4S,7R,7aS)—N-(cyano(isoquinolin-4-yl)methyl)-2-((S)-3,3-dimethyl-2-(2,2,2-trifluoroacetamido)butanoyl)-2,3,3a,4,7,7a-hexahydro-1H-4,7-methanoisoindole-1-carboxamide], the EC50 in series [1] and in series [6] was less than 100 nM each time. In addition, the CC50 at 6 days in series [2] is not below 10000 nM. In series [3], this compound came in with a CC50 of more than 1000 nM. The figures for the IC50 in series [4] (setting [7]) and in series [5] were less than 20 nM and not below 10000 nM, respectively.
As for `CC(C)(C)[C@H](NC(=O)C(F)(F)F)C(=O)N1C[C@@H]2[C@H]3C[C@@H]([C@@H]2[C@H]1C(=O)NC(C#N)c1cncc2cccnc12)[C@H](F)C3` (stereo partly drawn) [Compound 9, (1S,2R,3S,6R,7S,9R)—N-[cyano(1,6-naphthyridin-8-yl)methyl]-4-[(2S)-3,3-dimethyl-2-(2,2,2-trifluoroacetamido)butanoyl]-9-fluoro-4-azatricyclo[5.2.1.0^{2,6}]decane-3-carboxamide], the EC50 in series [1] and in series [6] was less than 100 nM throughout. This compound had a CC50 at 6 days in series [2] not below 10000 nM. For the same compound, the CC50 in series [3] is more than 1000 nM. Further, in series [4] (setting [7]), the IC50 is less than 20 nM.
For `COc1cccc2cncc(C(C#N)NC(=O)[C@@H]3[C@@H](c4ccccc4)CCN3C(=O)[C@@H](NC(=O)C(F)(F)F)C(C)(C)C)c12` (stereo partly drawn) [Compound 30], the EC50 is 1000 to 10000 nM in series [1] and not below 1000 nM in series [6]. This compound showed a CC50 at 6 days in series [2] not below 10000 nM. In series [3], this compound returned a CC50 of more than 1000 nM. Also, in series [4] (setting [7]), the IC50 lay within 20 to 200 nM.
For `CC(C)(C)[C@H](NC(=O)C(F)(F)F)C(=O)N1C[C@@H]2[C@H]3C[C@@H]([C@@H]2[C@H]1C(=O)NC(C#N)c1cncc2ccccc12)[C@H](F)C3` (stereo partly drawn) [Compound 7, (1S,2R,3S,6R,7S,9R)—N-[cyano(isoquinolin-4-yl)methyl]-4-[(2S)-3,3-dimethyl-2-(2,2,2-trifluoroacetamido)butanoyl]-9-fluoro-4-azatricyclo[5.2.1.0^{2,6}]decane-3-carboxamide], in that order: less than 100 nM, less than 100 nM, not below 10000 nM, more than 1000 nM and less than 20 nM.
The corresponding values for `CC(C)(C)[C@H](NC(=O)C(F)(F)F)C(=O)N1CC2(CC2)C[C@H]1C(=O)NC(C#N)c1cnn2ccccc12` (stereo partly drawn) [Compound 17, (6S)—N-(cyano(pyrazolo[1,5-a]pyridin-3-yl)methyl)-5-((S)-3,3-dimethyl-2-(2,2,2-trifluoroacetamido)butanoyl)-5-azaspiro[2.4]heptane-6-carboxamide] are 100 to 1000 nM, 100 to 1000 nM, not below 10000 nM, more than 1000 nM and 20 to 200 nM.

For the origin of these results see patent publication US20240182444A1, “ANTI-VIRAL COMPOUNDS” (Aligos Therapeutics, Inc., priority 2022, published 2024).
